Results as given in patent US5925769A, “Acetylenic 1,5-diarylpyrazoles as antiinflammatory agents” (Ortho Pharmaceutical, Corp., priority 1998, dated 1999).
Like-named read-outs stand apart in the source and are kept apart here.

Legend:
[1] = biological target: T1, CO (Rattus norvegicus, UniProt Q63921); assay: Procedure II: CO activity in broken RBL-1 cells (homogenate supernatant); format: biochemical; details: RBL-1 broken cell supernatant; for inhibition at 10 µM: 20 min, @ 10 .quadrature.M, read-out: Proc. II CO % inhibition; for IC50: read-out: Proc. II CO IC50
T1 construct: the supernatant was saved as the source of enzymes; endogenous in cells; host or cells: RBL-1 (rat basophilic leukemia) cells
T1 sequence (Q63921 27-602): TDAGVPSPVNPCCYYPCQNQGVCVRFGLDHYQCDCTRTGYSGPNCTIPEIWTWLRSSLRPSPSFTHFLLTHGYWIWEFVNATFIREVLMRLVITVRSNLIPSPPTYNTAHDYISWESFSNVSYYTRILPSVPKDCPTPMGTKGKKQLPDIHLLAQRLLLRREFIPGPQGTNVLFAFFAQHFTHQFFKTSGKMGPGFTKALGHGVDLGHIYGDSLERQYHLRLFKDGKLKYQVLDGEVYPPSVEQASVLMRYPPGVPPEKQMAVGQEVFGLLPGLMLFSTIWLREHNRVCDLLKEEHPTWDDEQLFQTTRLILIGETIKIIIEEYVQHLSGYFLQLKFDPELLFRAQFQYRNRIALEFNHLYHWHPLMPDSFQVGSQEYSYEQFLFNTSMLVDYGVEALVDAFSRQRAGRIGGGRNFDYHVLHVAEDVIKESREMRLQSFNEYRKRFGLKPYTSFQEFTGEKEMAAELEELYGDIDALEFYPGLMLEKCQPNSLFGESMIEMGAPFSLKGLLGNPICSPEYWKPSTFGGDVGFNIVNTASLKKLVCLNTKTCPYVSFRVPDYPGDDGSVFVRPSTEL
Procedure: (§1) Procedure II was used to assess LO and CO activity. Rat basophilic leukemia cells (RBL-1; 5×10^7 viable cells/mL) were disrupted by homogenization on ice (four 20 sec bursts) with a Brinkman polytron. […] The homogenate was then centrifuged at 9,220×g for 48 minutes at 4° C. The pellet was discarded and the supernatant was saved as the source of enzymes. The supernatant was pre-incubated for five minutes at 37° C. in the presence of 2 mM of CaCl2 and compound or vehicle (1% DMSO). The conversion of AA into products by CO and LO was initiated by adding 10 μL (50 μCi) of 1-^14 C-AA to each tube and incubated at 37° C. for 20 minutes. The reaction was stopped by adjusting the pH of each sample to 3 to 3.5 with 2M formic acid. Samples were extracted with three volumes of chloroform to isolate the products of 5-LO formed during the reaction. Fractions were dried under nitrogen, then resuspended in 40 μL of chloroform and spotted onto silica gel HL plates. The plates were developed in A-9 solvent. The dried plates were analyzed using a Bioscan Imaging TLC scanner to determine the percentage of radiolabelled AA converted to 5-HETE (LO product) in each sample. The percentage of inhibition was calculated by:
(§2) [1-(5-HETE test)]/5-HETE control×100=% inhibition
(§3) The IC50 was determined using a curve fit in Cricket Graph (Computer Associated), which provided the equation of the regressed line used in the calculation.

[2] = biological target: T2, 5-LO (Rattus norvegicus, UniProt P12527); assay: Procedure II: 5-LO activity (5-HETE) in broken RBL-1 cells (homogenate supernatant); format: biochemical; details: RBL-1 broken cell supernatant; for inhibition at 10 µM: 20 min, @ 10 .quadrature.M, read-out: Proc. II 5-LO % inhibition; for IC50: read-out: Proc. II 5-LO IC50
T2 construct: the supernatant was saved as the source of enzymes; endogenous in cells; host or cells: RBL-1 (rat basophilic leukemia) cells
T2 sequence (P12527 1-673): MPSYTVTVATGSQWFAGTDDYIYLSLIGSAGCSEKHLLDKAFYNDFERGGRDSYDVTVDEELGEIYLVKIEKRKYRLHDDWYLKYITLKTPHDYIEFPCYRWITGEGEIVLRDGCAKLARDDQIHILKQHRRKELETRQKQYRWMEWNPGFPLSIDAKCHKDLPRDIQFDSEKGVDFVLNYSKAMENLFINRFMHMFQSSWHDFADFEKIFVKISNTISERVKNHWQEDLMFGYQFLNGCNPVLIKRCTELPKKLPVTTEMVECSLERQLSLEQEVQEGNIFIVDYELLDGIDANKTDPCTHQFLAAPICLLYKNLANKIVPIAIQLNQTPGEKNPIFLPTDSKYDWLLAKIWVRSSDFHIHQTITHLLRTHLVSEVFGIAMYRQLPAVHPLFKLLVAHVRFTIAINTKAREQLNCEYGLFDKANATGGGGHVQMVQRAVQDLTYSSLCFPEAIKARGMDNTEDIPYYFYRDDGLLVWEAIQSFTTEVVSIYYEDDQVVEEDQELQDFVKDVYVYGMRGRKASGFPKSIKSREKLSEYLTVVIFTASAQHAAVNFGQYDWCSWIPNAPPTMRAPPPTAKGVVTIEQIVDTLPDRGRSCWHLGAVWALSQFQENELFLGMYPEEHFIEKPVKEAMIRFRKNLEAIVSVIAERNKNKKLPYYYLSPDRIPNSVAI
Procedure: as §1, §2, §3

[3] = biological target: T3, Sheep seminal vesicle (SSV) cyclooxygenase (Ovis aries, UniProt P05979); assay: Procedure I: inhibition of sheep seminal vesicle (SSV) cyclooxygenase; format: biochemical; details: for inhibition at 10 µM: 20 min, read-out: Proc. I % inhibition; for IC50: read-out: Proc. I IC50
T3 construct: Sheep seminal vesicle (SSV) cyclooxygenase (95% pure); purchased Biomol (Plymouth Meeting, PA); host or cells: sheep seminal vesicle
T3 sequence (P05979 25-600): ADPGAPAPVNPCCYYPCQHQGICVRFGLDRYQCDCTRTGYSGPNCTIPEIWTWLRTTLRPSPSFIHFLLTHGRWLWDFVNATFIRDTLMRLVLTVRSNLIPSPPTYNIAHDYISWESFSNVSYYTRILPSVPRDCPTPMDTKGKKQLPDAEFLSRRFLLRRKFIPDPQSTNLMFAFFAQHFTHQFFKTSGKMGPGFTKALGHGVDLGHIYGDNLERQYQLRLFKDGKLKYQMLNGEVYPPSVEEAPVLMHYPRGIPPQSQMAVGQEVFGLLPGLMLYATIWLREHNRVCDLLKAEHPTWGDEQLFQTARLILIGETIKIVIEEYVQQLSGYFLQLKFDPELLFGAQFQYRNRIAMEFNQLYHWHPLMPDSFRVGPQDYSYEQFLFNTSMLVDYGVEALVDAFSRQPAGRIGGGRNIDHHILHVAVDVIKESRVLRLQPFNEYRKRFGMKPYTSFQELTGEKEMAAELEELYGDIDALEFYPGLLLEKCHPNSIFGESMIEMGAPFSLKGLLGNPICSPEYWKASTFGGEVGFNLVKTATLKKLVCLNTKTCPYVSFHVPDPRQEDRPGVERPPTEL
Procedure: Procedure I was used to determine the ability of the compounds to inhibit cyclooxygenase. […] The enzyme was divided into 200 μL aliquots, snap frozen with liquid N2, and stored at -70° C. until immediately prior to use. […] The tubes were mixed on a vortex shaker, preincubated for 5 min at 37° C. prior to the initiation of the reaction. The reaction was started by the addition of [^14 C]-arachidonic acid (1-^14 C-AA, Amersham, Arlington Heights, Ill.) in 10 μL of methanol. Tubes were again vortexed and incubated in a water bath for 20 minutes after which the tubes were removed and the reaction stopped by acidification with the addition of 1 mL 2M formic acid. Lipophilic products were extracted with 3 mL chloroform and concentrated to dryness under N2. Each pellet was reconstituted with 40 μL of chloroform and spotted on a Whatman Silicon thin-layer chromatography plate and developed in a chromatography tank containing A-9 solvent (11:5:2:1 V:V:VV, ethyl acetate:trimethyl-pentane:acetic acid:double distilled-H2 O). Radioactive cyclooxygenase products (prostaglandin D2, prostaglandin E2, etc.) were measured using a Bioscan System 200 Imaging Scanner. Inhibition of enzyme activity was calculated by comparing the areas under the curve produced in the presence or absence of test compound.

[4] = biological target: T2, 5-LO; assay: Procedure III: 5-LO (5-HETE) in intact RBL-1 cells; format: cell-based; details: calcium ionophore A 23187, read-out: Proc. III 5-LO IC50
Procedure: as §3
(§4) In Procedure III, the ability to inhibit 5-LO and CO in intact RBL-1 cells was also evaluated. […] Cells were collected by centrifugation, washed once in HBSS, and resuspended at a concentration of 1×10^5 cells/mL. Cells were incubated in the presence of vehicle or drug then centrifuged at 800×g for 10 minutes at 4° C. The supernatant was removed by aspiration and the cells were resuspended in 0.5 mL of HBSS. […] The conversion of AA to 5-LO products was initiated by the addition of 10 μL (50 μCi) of 1-^14 C-AA. Products were isolated by acidification and extraction, followed by thin layer chromatography analysis as described above. Radioactive areas corresponding to authentic 5-LO (5-HETE) and CO (PgD2) products were quantitated by the Bioscan 2000 Imaging System and the IC50 was calculated as above.

[5] = biological target: T1, CO; assay: Procedure III: CO (PgD2) in intact RBL-1 cells; format: cell-based; details: calcium ionophore A 23187, read-out: Proc. III CO IC50
Procedure: as §3, §4

[6] = @ 10 .quadrature.M, SSV cyclooxygenase

inhibition at 10 µM [1] [%]	inhibition at 10 µM [2] [%]	inhibition at 10 µM [3, 6] [%]	IC50 [4] [nM]	IC50 [1] [nM]	IC50 [5] [nM]	IC50 [2] [nM]	IC50 ([3]; SSV cyclooxygenase) [nM]	SMILES	inhibition at 10 µM [3] [%]
0	74	0	–	–	–	–	–	COc1ccc(-n2nc(C#CC(C)N(O)C(=O)CCC(=O)O)cc2-c2ccc(Cl)cc2)cc1 (stereo not drawn) [Cpd 39]	–
0	37	0	–	–	–	–	–	CCc1ccc(-c2cc(C#CC(C)N(O)C(=O)CCC(=O)O)nn2-c2ccc(OC)cc2)cc1 (stereo not drawn) [Cpd 33]	–
50	71	66	8500	–	3400	–	–	CCOC(=O)C(=O)N(O)C(C)C#Cc1cc(-c2ccc(C)cc2)n(-c2ccc(OC)cc2)n1 (stereo not drawn) [Cpd 24]	–
0	93	0	–	–	–	–	–	CCc1ccc(-c2cc(C#CC(C)N(O)C(=O)CN3CCOCC3)nn2-c2ccc(OC)cc2)cc1 (stereo not drawn) [Cpd 44]	–
80	100	–	–	–	–	–	–	COc1ccc(-n2nc(C#CC(C)N(O)C(=O)C(C)C)cc2-c2ccc(Cl)cc2)cc1 (stereo not drawn) [Cpd 37]	–
21	100	31	–	–	–	–	–	CCCCCCCC(=O)N(O)C(C)C#Cc1cc(-c2ccc(Cl)cc2)n(-c2ccc(OC)cc2)n1 (stereo not drawn) [Cpd 38]	–
61	70	–	–	–	–	–	1300	COc1ccc(-n2nc(C#CC(C)N(O)C(=O)c3ccco3)cc2-c2ccc(C)cc2)cc1 (stereo not drawn) [Cpd 25, N-(furan-2-carbonyl)-N-(1-(1-(4-methoxyphenyl)-5-(4-methylphenyl)pyrazol-3-yl)-1-butyn-3-yl)hydroxylamine]	–
100	100	–	–	–	–	–	–	CCC(=O)N(O)C(C)C#Cc1cc(-c2ccc(Cl)cc2)n(-c2ccc(OC)cc2)n1 (stereo not drawn) [Cpd 36]	–
11	25	0	–	–	–	–	–	CCc1ccc(-c2cc(C#CC(C)N(O)C(=O)CN3CCN(C)CC3)nn2-c2ccc(OC)cc2)cc1 (stereo not drawn) [Cpd 45, N-(4-methylpiperazin-1-yl)acetyl-N-(1-[5-(4-ethylphenyl)-1-(4-methoxyphenyl)pyrazol-3-yl]-1-butyn-3-yl)hydroxylamine]	–
14	29	0	–	–	–	–	–	COc1ccc(-n2nc(C#CC(C)N(O)C(=O)CNCCCN(C)C)cc2-c2ccc(C)cc2)cc1 (stereo not drawn) [Cpd 42]	–

The next lines start with the compound.

SMILES	inhibition at 10 µM [1] [%]	inhibition at 10 µM [2] [%]	inhibition at 10 µM [3, 6] [%]	IC50 [4] [nM]	IC50 [1] [nM]	IC50 [5] [nM]	IC50 [2] [nM]	IC50 ([3]; SSV cyclooxygenase) [nM]	inhibition at 10 µM [3] [%]
COc1ccc(-n2nc(C#CC(C)N(O)C(C)=O)cc2-c2ccc(C)cc2)cc1 (stereo not drawn) [Cpd 18, N-Acetyl-N-(1-(1-(4-methoxyphenyl)-5-(4-methylphenyl)pyrazol-3-yl)-1-butyn-3-yl)hydroxylamine]	–	–	–	13100	10	110	80	310	–
CCC(=O)N(O)C(C)C#Cc1cc(-c2ccc(C)cc2)n(-c2ccc(OC)cc2)n1 (stereo not drawn) [Cpd 19]	67	93	76	–	–	–	–	–	–
CCC(C#Cc1cc(-c2ccc(C)cc2)n(-c2ccc(OC)cc2)n1)N(O)C(N)=O (stereo not drawn) [Cpd 3]	–	–	22	21300	15900	2100	70	–	–
COc1ccc(-n2nc(C#CC(C)N(O)C(=O)N3CCCCC3)cc2-c2ccc(Cl)cc2)cc1 (stereo not drawn) [Cpd 9]	–	76	–	8000	–	–	–	–	44
COc1ccc(-n2nc(C#CCN(O)C(N)=O)cc2-c2ccc(Cl)cc2)cc1 [Cpd 5, N-hydroxy-N-(1-(5-(4-chlorophenyl)-1-(4-methoxyphenyl)pyrazol-3-yl)-1-propyn-3-yl)urea]	0	–	9	900	–	–	80	–	–
CCCNC(=O)N(O)C(C)C#Cc1cc(-c2ccc(Cl)cc2)n(-c2ccc(OC)cc2)n1 (stereo not drawn) [Cpd 8]	32	82	14	2800	–	–	–	–	–
COc1ccc(-n2nc(C#CCN(O)C(=O)c3ccccc3)cc2-c2ccc(C)cc2)cc1 [Cpd 15]	–	100	–	8000	–	–	–	–	52
CNC(=O)N(O)C(C)C#Cc1cc(-c2ccc(Cl)cc2)n(-c2ccc(OC)cc2)n1 (stereo not drawn) [Cpd 7]	0	79	5	–	–	–	–	–	–
